Source: patent US20250295652A1, “Inhibitors of Molluscum Contagiosum Infection and Methods Using the Same” (priority 2021, published 2025)
Read-outs that look alike come from different tables or passages of the source.

Legend:
[1] = system: VV; assay: microbe, parasite or virus in culture; format: cell-based, vaccinia virus
[2] = system: mD4-VV surrogate virus; assay: microbe, parasite or virus in culture; format: cell-based, mD4/vaccinia hybrid virus; details: for EC50: Hybrid virus, BSC-1, read-out: mD4 EC50
[3] = Orthopoxvirus vaccinia, BSC-1, read-out: VV EC50

CCOC(=O)c1c(NC(=O)C(CC)c2ccccc2)sc(C)c1CC (stereo not drawn) [Compound 2, ethyl 4-ethyl-5-methyl-2-(2-phenylbutanamido)thiophene-3-carboxylate]
EC50 [1, 3]: 36.6 µM

CCOC(=O)c1c(NC(=O)C2CCCCC2)sc(C(N)=O)c1C [Compound 4, ethyl 5-carbamoyl-2-(cyclohexanecarboxamido)-4-methylthiophene-3-carboxylate]
EC50 [1, 3]: 48.9 µM

CCOC(=O)c1c(NC(=O)C(CC)c2ccccc2)sc(C(=O)N(C)C)c1C (stereo not drawn) [Compound 5, ethyl 5-(dimethylcarbamoyl)-4-methyl-2-(2-phenylbutanamido)thiophene-3-carboxylate]
EC50 [1, 3]: 29.7 µM

CCOC(=O)c1c(NC(=O)C(CC)c2ccccc2)sc(C(N)=O)c1C (stereo not drawn) [Compound 8, ethyl 5-carbamoyl-4-methyl-2-(2-phenylbutanamido)thiophene-3-carboxylate]
EC50 [1, 3]: 10.3 µM

CCC(C(=O)Nc1sc(C(N)=O)c(C)c1C#N)c1ccccc1 (stereo not drawn) [Compound 9, 4-cyano-3-methyl-5-(2-phenylbutanamido)thiophene-2-carboxamide]
EC50 [1, 3]: 11.3 µM

CC[C@H](C(=O)Nc1sc(C(N)=O)c(C)c1C(=O)OC)c1ccccc1 [Compound 15, methyl (S)-5-carbamoyl-4-methyl-2-(2-phenylbutanamido)thiophene-3-carboxylate]
EC50 [1, 3]: 17.9 µM

CC[C@@H](C(=O)Nc1sc(C(N)=O)c(C)c1C(=O)OC)c1ccccc1 [Compound 16, methyl (R)-5-carbamoyl-4-methyl-2-(2-phenylbutanamido)thiophene-3-carboxylate]
EC50 [1, 3]: 16.4 µM

CC[C@@H](C(=O)Nc1sc(C(N)=O)c(C)c1C(=O)OC)c1ccccc1 [Compound 17, methyl (R)-5-carbamoyl-4-methyl-2-(2-phenylbutanamido)thiophene-3-carboxylate]
EC50 ([1]; read-out: VV EC50): 26.8 µM

CCOC(=O)c1sc(NC(=O)C(CC)c2ccccc2)c(C(N)=O)c1C (stereo not drawn) [Compound 19, ethyl 4-carbamoyl-3-methyl-5-(2-phenylbutanamido)thiophene-2-carboxylate]
EC50 [1, 3]: 31.3 µM

CCC(C(=O)Nc1cc(C)c(C(=O)OC)s1)c1ccccc1 (stereo not drawn) [Compound 22, 3-Methyl-5-(2-phenyl-butyrylamino)-thiophene-2-carboxylic acid methyl ester]
EC50 [1, 3]: 26.8 µM

CCC(C(=O)Nc1sc(C(=O)N(CC)CC)c(C)c1C(=O)OC)c1ccccc1 (stereo not drawn) [Compound 24, methyl 5-(diethylcarbamoyl)-4-methyl-2-(2-phenylbutanamido)thiophene-3-carboxylate]
EC50 [1, 3]: 16.4 µM

CCC(C(=O)Nc1sc(C)c(C)c1C(=O)OC)c1ccccc1 (stereo not drawn) [Compound 26, methyl 4,5-dimethyl-2-(2-phenylbutanamido)thiophene-3-carboxylate]
EC50 [1, 3]: 45.3 µM

CCC(C(=O)Nc1sccc1C(N)=O)c1ccccc1 (stereo not drawn) [Compound 31, 2-(2-phenylbutanamido)thiophene-3-carboxamide]
EC50 [1, 3]: 49.7 µM

CCC(C(=O)Nc1scc(C)c1C(=O)OC)c1ccccc1 (stereo not drawn) [Compound 32, 4-Methyl-2-(2-phenyl-butyrylamino)-thiophene-3-carboxylic acid methyl ester]
EC50 [1, 3]: 32.9 µM

COC(=O)c1c(NC(=O)C(Cc2ccccc2)N2C(=O)c3ccccc3C2=O)sc(C(N)=O)c1C (stereo not drawn) [Compound 33, 5-Carbamoyl-2-[2-(1,3-dioxo-1,3-dihydro-isoindol-2-yl)-3-phenyl-propionylamino]-4-methyl-thiophene-3-carboxylic acid methyl ester]
EC50 [1, 3]: 43.6 µM

CCC(C(=O)Nc1cc(C)cs1)c1ccccc1 (stereo not drawn) [Compound 34, N-(4-methyl-thiophen-2-yl)-2-phenyl-butyramide]
EC50 [1, 3]: 46.7 µM

COC(=O)c1c(NC(=O)C2CCc3ccccc32)sc(C(N)=O)c1C (stereo not drawn) [Compound 35, 5-Carbamoyl-2-[(indane-1-carbonyl)-amino]-4-methyl-thiophene-3-carboxylic acid methyl ester]
EC50 [1, 3]: 20.4 µM

CCC(C(=O)Nc1snnc1C(=O)NCc1ccc(Cl)cc1)c1ccccc1 (stereo not drawn) [Compound 134, 5-(2-Phenyl-butyrylamino)-[1,2,3]thiadiazole-4-carboxylic acid 4-chloro-benzylamide]
EC50 [2]: 11.5 µM

CCC(C(=O)Nc1snnc1C(=O)NCc1ccccc1)c1ccccc1 (stereo not drawn) [Compound 135, 5-(2-Phenyl-butyrylamino)-[1,2,3]thiadiazole-4-carboxylic acid benzylamide]
EC50 [2]: 18.5 µM

CCC(C(=O)Nc1snnc1-c1ccccc1F)c1ccccc1 (stereo not drawn) [Compound 153, N-[4-(2-Fluoro-phenyl)-[1,2,3]thiadiazol-5-yl]-2-phenyl-butyramide]
EC50 [2]: 10.2 µM

CCC(C(=O)Nc1snnc1-c1ccc(F)cc1)c1ccccc1 (stereo not drawn) [Compound 154, N-[4-(4-Fluoro-phenyl)-[1,2,3]thiadiazol-5-yl]-2-phenyl-butyramide]
EC50 [2]: 32 µM

CCC(C(=O)Nc1snnc1-c1ccccc1)c1ccccc1 (stereo not drawn) [Compound 155, 2-Phenyl-N-(4-phenyl-[1,2,3]thiadiazol-5-yl)-butyramide]
EC50 [2]: 16.2 µM

CCC(C(=O)Nc1scnc1C(=O)NCc1ccccc1)c1ccccc1 (stereo not drawn) [Compound 162, 5-(2-Phenylbutanamido)-N-benzylthiazole-4-carboxamide]
EC50 [2]: 18.1 µM

CCOC(=O)c1ncsc1NC(=O)C(CC)c1ccccc1 (stereo not drawn) [Compound 165, Ethyl 5-(2-phenylbutanamido)thiazole-4-carboxylate]
% @ 25 uM (mD4) [2]: 30.6% @ 25 uM

O=C(NCc1ccccc1)c1nnsc1NC(=O)N1CCN(c2ccccc2F)CC1 [Compound 169, 4-(2-Fluoro-phenyl)-piperazine-1-carboxylic acid (4-benzylcarbamoyl-[1,2,3]thiadiazol-5-yl)-amide]
EC50 [2]: 32.7 µM

CCC(C(=O)NC(=O)c1sc(N)c(C(=O)OC)c1C)c1ccc(F)cc1 (stereo not drawn) [Compound 174, Methyl 5-(2-(4-fluorophenyl)butanoylcarbamoyl)-2-amino-4-methylthiophene-3-carboxylate]
EC50 [2]: 20.5 µM

O=C(CCCc1ccccn1)Nc1snnc1C(=O)NCc1ccc(Cl)cc1 [Compound 175, 5-(4-(Pyridin-2-yl)butanamido)-N-(4-chlorobenzyl)-1,2,3-thiadiazole-4-carboxamide]
EC50 [2]: 15.5 µM

CCC(C(=O)Nc1sc(C(=O)NC(C)c2ccncc2)c(C)c1C(=O)OC)c1ccc(F)cc1 (stereo not drawn) [Compound 186, methyl 2-(2-(4-fluorophenyl)butanamido)-4-methyl-5-((1-(pyridin-4-yl)ethyl)carbamoyl)thiophene-3-carboxylate]
EC50 [2]: 20 µM

CCC(C(=O)Nc1sc(C(=O)NCCc2cccnc2)c(C)c1C(=O)OC)c1ccc(F)cc1 (stereo not drawn) [Compound 187, methyl 2-(2-(4-fluorophenyl)butanamido)-4-methyl-5-((2-(pyridin-3-yl)ethyl)carbamoyl)thiophene-3-carboxylate]
EC50 [2]: 13.8 µM

CCC(C(=O)Nc1sc(C(N)=O)c(C)c1C(=O)OC)c1ccc(C)cc1 (stereo not drawn) [Compound 188, Methyl 5-carbamoyl-4-methyl-2-(2-(p-tolyl)butanamido)thiophene-3-carboxylate]
EC50 [2]: 64.1 µM

CCC(C(=O)Nc1sc(C(N)=O)c(C)c1C(=O)OC)c1ccccc1F (stereo not drawn) [Compound 189, Methyl 5-carbamoyl-2-(2-(2-fluorophenyl)butanamido)-4-methylthiophene-3-carboxylate]
EC50 [2]: 15.2 µM

CCC(C(=O)Nc1sc(C(N)=O)c(C)c1C(=O)OC)c1ccc(C(F)(F)F)cc1 (stereo not drawn) [Compound 190, methyl 5-carbamoyl-4-methyl-2-(2-(4-(trifluoromethyl)phenyl)butanamido)thiophene-3-carboxylate]
EC50 [2]: 4.8 µM

CCC(C(=O)Nc1sc(C(N)=O)c(C)c1C(=O)OC)c1ccc(Cl)cc1 (stereo not drawn) [Compound 191, Methyl 5-carbamoyl-2-(2-(4-chlorophenyl)butanamido)-4-methylthiophene-3-carboxylate]
EC50 [2]: 11.4 µM

CCC(C(=O)Nc1sc(C(=O)OC(C)(C)C)c(C)c1C(=O)OC)c1ccc2c(c1)OCO2 (stereo not drawn) [Compound 192, 2-tert-butyl 4-methyl 5-(2-(benzo[d][1,3]dioxol-5-yl)butanamido)-3-methylthiophene-2,4-dicarboxylate]
EC50 [2]: > 50 µM

CCC(C(=O)Nc1sc(C(N)=O)c(C)c1C(=O)OC)c1ccc2c(c1)OCO2 (stereo not drawn) [Compound 193, Methyl 2-(2-(benzo[d][1,3]dioxol-5-yl)butanamido)-5-carbamoyl-4-methylthiophene-3-carboxylate]
EC50 [2]: > 50 µM

CCC(C(=O)Nc1sc(C(=O)OC(C)(C)C)c(C)c1C(=O)OC)c1cc(F)cc(F)c1 (stereo not drawn) [Compound 194, 2-tert-butyl 4-methyl 5-(2-(3,5-difluorophenyl)butanamido)-3-methylthiophene-2,4-dicarboxylate]
EC50 [2]: > 50 µM

CCC(C(=O)Nc1sc(C(N)=O)c(C)c1C(=O)OC)c1cc(F)cc(F)c1 (stereo not drawn) [Compound 195, Methyl 2-(2-(3,5-difluorophenyl)butanamido)-5-carbamoyl-4-methylthiophene-3-carboxylate]
EC50 [2]: 25.8 µM

CCC(C(=O)Nc1sc(C(N)=O)c(C)c1C(=O)OC)c1ccc(C#N)cc1 (stereo not drawn) [Compound 197, Methyl 2-(2-(4-cyanophenyl)butanamido)-5-carbamoyl-4-methylthiophene-3-carboxylate]
EC50 [2]: 42 µM

CCC(C(=O)Nc1sc(C(=O)OC(C)(C)C)c(C)c1C(=O)OC)c1ccc(C(F)(F)F)cc1 (stereo not drawn) [Compound 198, 2-tert-butyl 4-methyl 5-(2-(4-(trifluoromethyl)phenyl)butanamido)-3-methylthiophene-2,4-dicarboxylate]
EC50 [2]: > 50 µM

CCC(C(=O)Nc1sc(C(=O)N2CCNCC2)c(C)c1C(=O)OC)c1ccc(F)cc1 (stereo not drawn) [Compound 201, Methyl 2-[2-(4-fluorophenyl)butanamido]-4-methyl-5-(piperazine-1-carbonyl)thiophene-3-carboxylate]
EC50 [2]: > 25 µM

CCC(C(=O)Nc1sc(C(=O)NCCCNC(=O)OC(C)(C)C)c(C)c1C(=O)OC)c1ccc(F)cc1 (stereo not drawn) [Compound 202, Methyl 5-((3-((tert-butoxycarbonyl)amino)propyl)carbamoyl)-2-(2-(4-fluorophenyl)butanamido)-4-methylthiophene-3-carboxylate]
EC50 [2]: > 50 µM

CCC(C(=O)Nc1sc(C(=O)NCCCN)c(C)c1C(=O)OC)c1ccc(F)cc1 (stereo not drawn) [Compound 203, Methyl 5-(3-aminopropylcarbamoyl)-2-(2-(4-fluorophenyl)butanamido)-4-methylthiophene-3-carboxylate]
EC50 [2]: 20 µM
